{
  "source": "PubChem BioAssay AID602427",
  "about": "(Sanford-Burnham Center for Chemical Genomics, 2012)",
  "note": "The source made the active and inactive calls.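 The calls were made as follows: active = EC50 at or below 20 micromolar; inactive = the rest.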",
  "data": [
    {"target": "Neurotensin receptor type 1 (Homo sapiens) (UniProt P30989)", "sequence (P30989 whole entry, looked up, the tested form may be a part)": "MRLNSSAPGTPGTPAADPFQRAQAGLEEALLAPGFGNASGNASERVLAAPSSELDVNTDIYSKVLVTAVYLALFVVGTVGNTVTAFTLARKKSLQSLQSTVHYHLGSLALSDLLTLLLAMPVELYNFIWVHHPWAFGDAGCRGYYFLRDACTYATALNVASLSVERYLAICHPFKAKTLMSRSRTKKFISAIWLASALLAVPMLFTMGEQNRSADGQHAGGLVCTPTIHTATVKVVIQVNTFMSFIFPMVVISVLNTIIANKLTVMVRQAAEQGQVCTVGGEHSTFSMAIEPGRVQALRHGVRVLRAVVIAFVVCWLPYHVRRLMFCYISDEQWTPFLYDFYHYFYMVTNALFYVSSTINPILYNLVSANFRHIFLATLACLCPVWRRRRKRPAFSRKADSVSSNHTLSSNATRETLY", "assay": "NTSR1 activation via enzyme-fragment complementation – cell-based, luminescence, CHO-K1 NTSR1 PathHunter, orthogonal assay for NTR1 agonist project, SAR follow-up (AID 602427);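 also: agonist potency for NTR1 activation where higher luminescence means more arrestin recruitment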", "conditions": "CHO-K1 NTSR1 PathHunter beta-arrestin", "values": [
      {"molecule": "COc1cccc(OC)c1-c1cc(C(=O)O)nn1-c1ccnc2cc(Cl)ccc12", "EC50": "> 33 µM (inactive)"},
      {"molecule": "COc1ccc(C(=O)c2cn(Cc3ccncc3)c3ccccc3c2=O)cc1", "EC50": "> 33 µM (inactive)"},
      {"molecule": "COc1ccc(C(=O)c2cn(Cc3ccc(OC(F)(F)F)cc3)c3ccccc3c2=O)cc1", "EC50": "> 33 µM (inactive)"},
      {"molecule": "Cc1ccc(-n2ncc3c(N4CCN(c5ccc(F)cc5)CC4)ncnc32)c(C)c1", "EC50": "> 33 µM (inactive)"},
      {"molecule": "Fc1ccc(Cn2cc3c(-c4ccc(F)cc4)nnc-3c3cc4c(cc32)OCO4)cc1", "EC50": "> 33 µM (inactive)"},
      {"molecule": "COc1cc2c3nnc(-c4ccc(Cl)cc4)c-3cn(Cc3ccccc3)c2cc1OC", "EC50": "> 33 µM (inactive)"},
      {"molecule": "COc1cc2nc(C3CCC3)nc(N3CCN(c4ccccc4)CC3)c2cc1OC", "EC50": "> 33 µM (inactive)"},
      {"molecule": "CCn1cc(C(=O)c2ccc(F)cc2)c(=O)c2cc(OC)c(OC)cc21", "EC50": "> 33 µM (inactive)"},
      {"molecule": "COc1ccc(-c2nnc3c4ccccc4n(Cc4ccccc4)cc2-3)cc1", "EC50": "> 33 µM (inactive)"},
      {"molecule": "COc1cc2c3nnc(-c4ccc(C)cc4)c-3cn(Cc3ccccc3)c2cc1OC", "EC50": "inactive"},
      {"molecule": "COc1ccc(Cn2c(SCc3ccccc3C)nc3cc(OC)c(OC)cc3c2=N)cc1Cl", "EC50": "> 33 µM (inactive)"},
      {"molecule": "COc1cc2c3nnc(-c4ccc(F)cc4)c-3cn(Cc3ccc(C)cc3)c2cc1OC", "EC50": "> 33 µM (inactive)"},
      {"molecule": "COc1cccc(OC)c1-c1nc(C(=O)N[C@@H](CC(C)C)C(=O)O)cn1-c1ccncc1", "EC50": "> 33 µM (inactive)"},
      {"molecule": "COc1cc2c3nnc(-c4ccc(F)cc4)c-3cn(Cc3ccncc3)c2cc1OC", "EC50": "> 33 µM (inactive)"},
      {"molecule": "CN(C)S(=O)(=O)c1ccc(-c2csc(N/N=C/c3cccs3)n2)cc1", "EC50": "> 33 µM (inactive)"},
      {"molecule": "CC(C)C[C@H](NC(=O)c1cn(-c2ccncc2)c(-c2ccccc2)n1)C(=O)O", "EC50": "> 33 µM (inactive)"},
      {"molecule": "COc1cc2c(=O)c(C(=O)c3ccc(F)cc3)cn(Cc3ccc(Cl)cc3)c2cc1OC", "EC50": "> 33 µM (inactive)"},
      {"molecule": "CC(C)C[C@H](NC(=O)c1cn(-c2ccnc3ccccc23)c2c(OCc3ccccc3)cccc12)C(=O)O", "EC50": "inactive"},
      {"molecule": "COc1ccc(C(=O)c2cn(Cc3ccc(F)cc3)c3ccccc3c2=O)cc1", "EC50": "> 33 µM (inactive)"},
      {"molecule": "COc1ccc(C(=O)c2cn(CC3CC3)c3ccccc3c2=O)cc1", "EC50": "> 33 µM (inactive)"},
      {"molecule": "COc1cc2c(=O)c(C(=O)c3ccc(F)cc3)cn(CCc3ccccc3)c2cc1OC", "EC50": "> 33 µM (inactive)"},
      {"molecule": "CN(C)S(=O)(=O)c1ccc(-c2csc(N/N=C/c3ccc(C(C)(C)C)cc3)n2)cc1", "EC50": "> 33 µM (inactive)"},
      {"molecule": "Cc1ccc(-n2ncc3c(N4CCN(c5ccc([N+](=O)[O-])cc5)CC4)ncnc32)c(C)c1", "EC50": "> 33 µM (inactive)"},
      {"molecule": "COc1ccc(Cn2c(SCc3cccc(C(F)(F)F)c3)nc3cc(OC)c(OC)cc3c2=N)cc1Cl", "EC50": "> 33 µM (inactive)"},
      {"molecule": "COc1cc2c3nnc(-c4ccc(C)cc4)c-3cn(Cc3ccc(C)cc3)c2cc1OC", "EC50": "> 33 µM (inactive)"},
      {"molecule": "Cc1ccc(-n2ncc3c(N4CCN(c5ccccc5)CC4)ncnc32)c(C)c1", "EC50": "> 33 µM (inactive)"},
      {"molecule": "Cc1cccc(C)c1-c1nc(C(=O)N[C@@H](CC(C)C)C(=O)O)cn1-c1ccnc2cc(Cl)ccc12", "EC50": "> 33 µM (inactive)"},
      {"molecule": "COc1cc2c(=O)c(C(=O)c3ccc(F)cc3)cn(Cc3ccc(OC(F)(F)F)cc3)c2cc1OC", "EC50": "> 33 µM (inactive)"},
      {"molecule": "COc1ccc2c(c1)c1nnc(-c3ccc(F)cc3)c-1cn2Cc1ccc(F)cc1", "EC50": "> 33 µM (inactive)"},
      {"molecule": "COc1ccc(C(=O)c2cn(CCc3ccccc3)c3ccccc3c2=O)cc1", "EC50": "> 33 µM (inactive)"},
      {"molecule": "COc1ccccc1N1CCN(c2nc(C3CCC3)nc3ccccc23)CC1", "EC50": "> 33 µM (inactive)"},
      {"molecule": "COc1ccccc1-c1nc(C(=O)N[C@@H](CC(C)C)C(=O)O)cn1-c1ccnc2cc(Cl)ccc12", "EC50": "> 33 µM (inactive)"},
      {"molecule": "CC(C)C[C@H](NC(=O)c1cn(-c2ccnc3cc(Cl)ccc23)c(-c2c(Cl)cccc2Cl)n1)C(=O)O", "EC50": "> 33 µM (inactive)"},
      {"molecule": "COc1ccc(-c2nnc3c4ccccc4n(Cc4ccc(OC(F)(F)F)cc4)cc2-3)cc1", "EC50": "> 33 µM (inactive)"},
      {"molecule": "CC(C)C[C@H](NC(=O)c1cn(-c2ccnc3cc(Cl)ccc23)c2ccccc12)C(=O)O", "EC50": "> 33 µM (inactive)"},
      {"molecule": "CCN(CC)S(=O)(=O)c1ccc(-c2csc(N/N=C/c3ccco3)n2)cc1", "EC50": "> 33 µM (inactive)"},
      {"molecule": "CCn1cc2c(-c3ccc(F)cc3)nnc-2c2cc(OC)c(OC)cc21", "EC50": "> 33 µM (inactive)"},
      {"molecule": "COc1ccc(-c2nnc3c4cc(OC)c(OC)cc4n(Cc4ccc(C)cc4)cc2-3)cc1", "EC50": "15.5 µM"}
    ]}
  ]
}
